US20240366589A1, “NHE3-BINDING COMPOUNDS AND METHODS FOR INHIBITING PHOSPHATE TRANSPORT” (Ardelyx, Inc., priority 2013, published 2024)

Tests used:
[1] = system: absorption of sodium from the intestinal lumen; experiment: Fecal form score (FFS) 16 h after oral dose in rats; assay type: in vivo, rat; conditions: oral gavage, 16 h post-dose, scale 1-5
Summary of the method: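 Fecal form was scored at 16 h post-dose on a 1–5 wetness scale (normal pellet to liquid stream), with two independent observations averaged across six rats per group. Animals were 8-week-old Sprague-Dawley rats given test compound or water orally in the late afternoon and kept in metabolic cages.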

Rat NHE3 = target: T1, Rat NHE3 (Rattus norvegicus, UniProt P26433); experiment: Cell-based NHE3 activity under prompt conditions (OK cells, BCECF pH recovery), rat NHE3; conditions: prompt conditions
T1 construct: expressed in transfected cells; host or cells: Opossum kidney (OK) cells (ATCC), electroporation
Summary of the method: (§1)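 Fluorometric NHE3 antiport assay in opossum kidney cells carrying rat or human NHE3, using BCECF pH recovery after NH4Cl-prepulse acid loading. pIC50 values derive from initial rates averaged across at least two replicates.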

Human NHE3 = target: T2, Human NHE3 (Homo sapiens, UniProt P48764); experiment: Cell-based NHE3 activity under prompt conditions (OK cells, BCECF pH recovery), human NHE3; conditions: prompt conditions
T2 construct: expressed in transfected cells; host or cells: Opossum kidney (OK) cells (ATCC), electroporation
T2 sequence (P48764 26-834): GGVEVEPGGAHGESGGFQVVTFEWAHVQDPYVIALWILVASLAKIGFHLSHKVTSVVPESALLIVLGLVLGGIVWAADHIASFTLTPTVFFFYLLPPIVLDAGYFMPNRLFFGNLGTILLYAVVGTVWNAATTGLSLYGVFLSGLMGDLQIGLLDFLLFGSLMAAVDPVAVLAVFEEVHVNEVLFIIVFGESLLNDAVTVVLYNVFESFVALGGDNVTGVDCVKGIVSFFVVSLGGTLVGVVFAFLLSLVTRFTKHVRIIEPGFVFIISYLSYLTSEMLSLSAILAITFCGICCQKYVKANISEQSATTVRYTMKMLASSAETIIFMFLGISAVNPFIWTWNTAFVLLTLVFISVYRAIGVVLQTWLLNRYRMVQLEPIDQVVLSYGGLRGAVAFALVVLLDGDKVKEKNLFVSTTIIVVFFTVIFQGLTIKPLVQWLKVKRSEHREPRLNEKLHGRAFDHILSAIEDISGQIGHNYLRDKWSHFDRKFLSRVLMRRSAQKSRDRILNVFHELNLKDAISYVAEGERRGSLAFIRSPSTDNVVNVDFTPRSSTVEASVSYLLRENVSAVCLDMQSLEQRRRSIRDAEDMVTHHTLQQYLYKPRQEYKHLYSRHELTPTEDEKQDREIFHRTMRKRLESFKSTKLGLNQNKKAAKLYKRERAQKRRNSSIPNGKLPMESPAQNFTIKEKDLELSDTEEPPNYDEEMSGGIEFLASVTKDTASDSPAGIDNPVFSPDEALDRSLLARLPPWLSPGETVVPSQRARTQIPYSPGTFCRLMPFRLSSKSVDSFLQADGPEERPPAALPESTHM
Summary of the method: as §1

[2] = system: absorption of sodium from the intestinal lumen; experiment: Inhibition of intestinal sodium absorption: urinary sodium (uNa) 16 h after single oral dose in rats; assay type: in vivo, rat; conditions: oral gavage, 16 h post-dose
Summary of the method: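 Urinary sodium mass over the 16 h after one oral gavage dose, measured by cation-exchange ion chromatography, reported as percent of water-vehicle group; ANOVA plus Dunnett's post hoc test. Groups of six 8-week-old Sprague-Dawley rats, housed individually in metabolic cages post-dose, fed and watered freely.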

[3] = system: phosphorus and calcium levels in the urine of rats; experiment: Urinary excretion of phosphate and calcium in rats (16 h overnight urine); assay type: in vivo, rat; conditions: rats, oral gavage, 16 h post-dose

T1 sequence (P26433 29-831): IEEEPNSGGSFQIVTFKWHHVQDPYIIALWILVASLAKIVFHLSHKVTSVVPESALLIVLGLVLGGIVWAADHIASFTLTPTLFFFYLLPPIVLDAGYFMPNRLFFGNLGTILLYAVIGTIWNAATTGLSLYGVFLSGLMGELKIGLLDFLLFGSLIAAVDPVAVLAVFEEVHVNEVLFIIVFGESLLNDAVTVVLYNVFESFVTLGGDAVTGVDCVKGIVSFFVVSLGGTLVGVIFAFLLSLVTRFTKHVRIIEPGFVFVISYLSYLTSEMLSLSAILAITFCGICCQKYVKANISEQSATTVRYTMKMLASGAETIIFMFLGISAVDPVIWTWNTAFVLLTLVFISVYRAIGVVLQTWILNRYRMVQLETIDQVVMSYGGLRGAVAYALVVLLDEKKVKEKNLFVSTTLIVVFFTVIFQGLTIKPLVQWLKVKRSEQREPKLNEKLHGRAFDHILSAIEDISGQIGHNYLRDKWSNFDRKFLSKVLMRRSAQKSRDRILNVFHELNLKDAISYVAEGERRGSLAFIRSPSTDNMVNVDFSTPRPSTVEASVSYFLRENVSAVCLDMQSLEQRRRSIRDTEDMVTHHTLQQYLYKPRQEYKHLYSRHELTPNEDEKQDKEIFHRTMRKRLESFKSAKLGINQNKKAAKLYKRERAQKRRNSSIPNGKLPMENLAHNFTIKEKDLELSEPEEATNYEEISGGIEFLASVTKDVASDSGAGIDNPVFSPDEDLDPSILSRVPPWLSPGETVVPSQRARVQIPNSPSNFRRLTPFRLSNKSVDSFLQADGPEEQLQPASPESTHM

| Compound | Fecal Form Score average ([1]; dose 1 mg/kg) | Fecal Form Score average ([1]; dose 3 mg/kg) | Fecal Form Score average ([1]; dose 10 mg/kg) | Prompt Rat NHE3 pIC50 (Rat NHE3) | Prompt Human NHE3 pIC50 (Human NHE3) | Urine Na % of control ([2]; dose 1 mg/kg) [%] | Urine Na % of control ([2]; dose 3 mg/kg) [%] | Urine Na % of control ([2]; dose 10 mg/kg) [%] | Urine P % of control ([3]; dose 1 mg/kg) [%] | Urine P % of control ([3]; dose 3 mg/kg) [%] | Urine P % of control ([3]; dose 10 mg/kg) [%] | IC50 (Rat NHE3; read-out: Prompt Rat NHE3 pIC50 (converted)) [nM] |
| --- | --- | --- | --- | --- | --- | --- | --- | --- | --- | --- | --- | --- |
| CN1Cc2c(Cl)cc(Cl)cc2[C@H](c2cccc(S(=O)(=O)N(C)CCOCCOCCNC(=O)NCCCN(CCCNC(=O)NCCOCCOCCN(C)S(=O)(=O)c3cccc([C@@H]4CN(C)Cc5c(Cl)cc(Cl)cc54)c3)CCCNC(=O)NCCOCCOCCN(C)S(=O)(=O)c3cccc([C@@H]4CN(C)Cc5c(Cl)cc(Cl)cc54)c3)c2)C1 [compound 106] | 1 | 2 | 4 | 7.00 | 7.90 | 98 | 76 | 20 | 124 | 39 | 64 | – |
| CN1Cc2c(Cl)cc(Cl)cc2[C@H](c2cccc(S(=O)(=O)NCCOCCOCCNC(=O)N(C)CCCN(CCCN(C)C(=O)NCCOCCOCCNS(=O)(=O)c3cccc([C@@H]4CN(C)Cc5c(Cl)cc(Cl)cc54)c3)CCCN(C)C(=O)NCCOCCOCCNS(=O)(=O)c3cccc([C@@H]4CN(C)Cc5c(Cl)cc(Cl)cc54)c3)c2)C1 [compound 107] | 1 | 1 | 4 | 6.90 | 8.10 | 88 | 55 | 28 | 106 | 66 | 59 | – |
| CN1Cc2c(Cl)cc(Cl)cc2[C@H](c2cccc(S(=O)(=O)NCCOCCOCCNC(=O)NCCC[N+](C)(CCCNC(=O)NCCOCCOCCNS(=O)(=O)c3cccc([C@@H]4CN(C)Cc5c(Cl)cc(Cl)cc54)c3)CCCNC(=O)NCCOCCOCCNS(=O)(=O)c3cccc([C@@H]4CN(C)Cc5c(Cl)cc(Cl)cc54)c3)c2)C1 [compound 109] | 1 | 2 | 4 | 7.40 | 8.10 | 64 | 52 | 28 | 65 | 51 | 52 | – |
| CN1Cc2c(Cl)cc(Cl)cc2[C@H](c2cccc(S(=O)(=O)NCCOCCOCCNC(=O)CCC(CCC(=O)NCCOCCOCCNS(=O)(=O)c3cccc([C@@H]4CN(C)Cc5c(Cl)cc(Cl)cc54)c3)(CCC(=O)NCCOCCOCCNS(=O)(=O)c3cccc([C@@H]4CN(C)Cc5c(Cl)cc(Cl)cc54)c3)NCc3ccc(-c4ccc(Cl)cc4)cc3)c2)C1 [compound 113] | – | – | 1 | <5.00 | <5.00 | – | – | 64 | – | – | 61 | – |
| CN(C)[C@H]1Cc2ccccc2[C@@H]1Oc1ccc(S(=O)(=O)NCCOCCOCCNC(=O)NCCCCNC(=O)NCCOCCOCCNS(=O)(=O)c2ccc(O[C@H]3c4ccccc4C[C@@H]3N(C)C)cc2)cc1 [compound 115] | – | – | 1 | <5.00 | 8.55 | – | – | 69 | – | – | 60 | – |
| CN(C)[C@H]1Cc2ccc(Cl)cc2[C@@H]1Oc1ccc(S(=O)(=O)NCCOCCOCCNC(=O)NCCCCNC(=O)NCCOCCOCCNS(=O)(=O)c2ccc(O[C@H]3c4cc(Cl)ccc4C[C@@H]3N(C)C)cc2)cc1 [compound 116] | – | – | 1 | <5.00 | 8.30 | – | – | 84 | – | – | 130 | – |
| O=C(NCCOCCOCCOCCNS(=O)(=O)c1ccc(O[C@H]2c3ccccc3C[C@@H]2N2CCCCC2)cc1)c1ccc(C(=O)NCCOCCOCCOCCNS(=O)(=O)c2ccc(O[C@H]3c4ccccc4C[C@@H]3N3CCCCC3)cc2)cc1 [compound 117] | – | – | 1 | 7.50 | 8.20 | – | – | 77 | – | – | 98 | – |
| O=C(NCCOCCOCCOCCNS(=O)(=O)c1ccc(O[C@H]2c3ccccc3C[C@@H]2N2CCCCC2)cc1)c1cccc(C(=O)NCCOCCOCCOCCNS(=O)(=O)c2ccc(O[C@H]3c4ccccc4C[C@@H]3N3CCCCC3)cc2)c1 [compound 118] | – | – | 1 | 7.40 | 8.10 | – | – | 83 | – | – | 131 | – |
| CC(C)(C(=O)NCCOCCOCCOCCNS(=O)(=O)c1ccc(O[C@H]2c3ccccc3C[C@@H]2N2CCCCC2)cc1)C(=O)NCCOCCOCCOCCNS(=O)(=O)c1ccc(O[C@H]2c3ccccc3C[C@@H]2N2CCCCC2)cc1 [compound 119] | – | – | 1 | 8.70 | 7.80 | – | – | 43 | – | – | 52 | – |
| CN1Cc2c(Cl)cc(Cl)cc2[C@H](c2cccc(S(=O)(=O)NCCOCCOCCNC(=O)CCC(CCC(=O)NCCOCCOCCNS(=O)(=O)c3cccc([C@@H]4CN(C)Cc5c(Cl)cc(Cl)cc54)c3)(CCC(=O)NCCOCCOCCNS(=O)(=O)c3cccc([C@@H]4CN(C)Cc5c(Cl)cc(Cl)cc54)c3)NS(C)(=O)=O)c2)C1 [compound 122] | – | 2 | – | 6.20 | 6.80 | – | 30 | – | – | 87 | – | – |
| CN1Cc2c(Cl)cc(Cl)cc2[C@H](c2cccc(S(=O)(=O)NCCOCCOCCNC(=O)CCC(CCC(=O)NCCOCCOCCNS(=O)(=O)c3cccc([C@@H]4CN(C)Cc5c(Cl)cc(Cl)cc54)c3)(CCC(=O)NCCOCCOCCNS(=O)(=O)c3cccc([C@@H]4CN(C)Cc5c(Cl)cc(Cl)cc54)c3)NC(=O)CCC(=O)O)c2)C1 [compound 123] | 1 | 3 | – | 7.50 | 7.80 | 49 | 12 | – | 124 | 88 | – | – |
| CN1Cc2c(Cl)cc(Cl)cc2[C@H](c2cccc(S(=O)(=O)NCCOCCOCCNC(=O)CCC(CCC(=O)NCCOCCOCCNS(=O)(=O)c3cccc([C@@H]4CN(C)Cc5c(Cl)cc(Cl)cc54)c3)(CCC(=O)NCCOCCOCCNS(=O)(=O)c3cccc([C@@H]4CN(C)Cc5c(Cl)cc(Cl)cc54)c3)N(C)C)c2)C1 [compound 124] | 1 | 2 | – | – | 7.50 | 69 | 22 | – | 154 | 61 | – | 67.6 |
